# ChEMBL document CHEMBL4000252, “Discovery of N-(2-aminoethyl)-N-benzyloxyphenyl benzamides: New potent Trypanosoma brucei inhibitors” (Bioorg Med Chem, 2017)
# The source made the active and inactive calls. The rule behind the calls is not given here.
# Legend:
# [1] = Ratio of drug level in brain to plasma in mouse at 5 mg/kg, ip after 1 hr by LC-MS analysis; type: ADME, organism-based
# [2] = Cmax in mouse at 50 mg/kg, po by LC-MS analysis; type: ADME, organism-based; design: dose 50 mg/kg, route oral; conditions: in vivo
# Liver = assay: Half life in human liver microsomes at 1.5 uM by LC-MS analysis; type: ADME, microsome
# [3] = system: Trypanosoma brucei brucei; assay: Antiparasitic activity against Trypanosoma brucei brucei BF427 assessed as growth inhibition at 128 times EC50 pretreated for 48 hrs followed by compound washout measured after 10 days by light microscopic method; type: functional
# [4] = system: Trypanosoma brucei brucei; assay: Antiparasitic activity against Trypanosoma brucei brucei BF427 assessed as growth inhibition at 64 times EC50 pretreated for 72 hrs followed by compound washout measured after 10 days by light microscopic method; type: functional
# [5] = system: Trypanosoma brucei rhodesiense; assay: Antiparasitic activity against Trypanosoma brucei rhodesiense STIB900 infected in Swiss-Webster mouse assessed as cure rate at 50 mg/kg, bid administered via oral gavage from day 2 to 5 post infection measured after 60 days by microscopic method relative to control; type: functional
# HepG2 = assay: Cytotoxicity against human HepG2 cells assessed as growth inhibition after 48 hrs by Alamar blue assay; type: cell-based; conditions: hepg2, 48 h
# [6] = system: Trypanosoma brucei brucei; assay: Antiparasitic activity against Trypanosoma brucei brucei BF427 assessed as growth inhibition at 64 times EC50 pretreated for 96 hrs followed by compound washout measured after 10 days by light microscopic method; type: functional
# [7] = system: Trypanosoma brucei brucei; assay: Antiparasitic activity against Trypanosoma brucei brucei BF427 assessed as growth inhibition at 128 times EC50 pretreated for 24 hrs followed by compound washout measured after 10 days by light microscopic method; type: functional
# [8] = AUC (0 to 8 hrs) in mouse at 50 mg/kg, po by LC-MS analysis; type: ADME, organism-based; design: dose 50 mg/kg, time < 8 hr, route oral; conditions: in vivo
# [9] = system: Trypanosoma brucei brucei; assay: Antiparasitic activity against Trypanosoma brucei brucei BF427 assessed as growth inhibition after 48 hrs by Alamar blue assay; type: functional; conditions: BF427, 48 h
# [10] = Cytotoxicity against human CRL8155 cells assessed as growth inhibition after 48 hrs by Alamar blue assay; type: cell-based; conditions: crl8155, 48 h
# [11] = system: Trypanosoma brucei brucei; assay: Antiparasitic activity against Trypanosoma brucei brucei TREU667 infected in mouse assessed as decrease in parasitemia at 50 mg/kg, bid administered via oral gavage on day 21 to 34 post infection measured on day 34 by microscopic method; type: functional, organism-based
# [12] = system: Trypanosoma brucei brucei; assay: Antiparasitic activity against Trypanosoma brucei brucei TREU667 infected in mouse assessed as decrease in parasitemia at 50 mg/kg, bid administered via oral gavage on day 21 to 34 post infection measured on day 38 by microscopic method; type: functional, organism-based
# [13] = system: Trypanosoma brucei brucei; assay: Antiparasitic activity against Trypanosoma brucei brucei TREU667 infected in mouse assessed as decrease in parasitemia at 50 mg/kg, bid administered via oral gavage on day 21 to 34 post infection measured on day 39 by microscopic method; type: functional, organism-based
# [14] = system: Trypanosoma brucei brucei; assay: Antiparasitic activity against Trypanosoma brucei brucei TREU667 infected in mouse assessed as decrease in parasitemia at 50 mg/kg, bid administered via oral gavage on day 21 to 34 post infection measured on day 43 to 45 by microscopic method; type: functional, organism-based
# [15] = system: Trypanosoma brucei brucei; assay: Antiparasitic activity against Trypanosoma brucei brucei TREU667 infected in mouse assessed as decrease in parasitemia at 50 mg/kg, bid administered via oral gavage on day 21 to 34 post infection measured on day 35 by microscopic method; type: functional, organism-based
# [16] = system: Trypanosoma brucei brucei; assay: Antiparasitic activity against Trypanosoma brucei brucei TREU667 infected in mouse assessed as decrease in parasitemia at 50 mg/kg, bid administered via oral gavage on day 21 to 34 post infection measured on day 36 by microscopic method; type: functional, organism-based
# [17] = system: Trypanosoma brucei brucei; assay: Antiparasitic activity against Trypanosoma brucei brucei TREU667 infected in mouse assessed as decrease in parasitemia at 50 mg/kg, bid administered via oral gavage on day 21 to 34 post infection measured on day 37 by microscopic method; type: functional, organism-based
# [18] = system: Trypanosoma brucei brucei; assay: Antiparasitic activity against Trypanosoma brucei brucei TREU667 infected in mouse assessed as decrease in parasitemia at 50 mg/kg, bid administered via oral gavage on day 21 to 34 post infection measured on day 50 to 51 by microscopic method; type: functional, organism-based
# [19] = system: Trypanosoma brucei brucei; assay: Antiparasitic activity against Trypanosoma brucei brucei TREU667 infected in mouse assessed as decrease in parasitemia at 50 mg/kg, bid administered via oral gavage on day 21 to 34 post infection measured on day 52 to 180 by microscopic method; type: functional, organism-based
# [20] = system: Trypanosoma brucei brucei; assay: Antiparasitic activity against Trypanosoma brucei brucei TREU667 infected in mouse assessed as decrease in parasitemia at 50 mg/kg, bid administered via oral gavage on day 21 to 34 post infection measured on day 40 by microscopic method; type: functional, organism-based
# [21] = system: Trypanosoma brucei brucei; assay: Antiparasitic activity against Trypanosoma brucei brucei TREU667 infected in mouse assessed as decrease in parasitemia at 50 mg/kg, bid administered via oral gavage on day 21 to 34 post infection measured on day 46 to 49 by microscopic method; type: functional, organism-based
# [22] = system: Trypanosoma brucei brucei; assay: Antiparasitic activity against Trypanosoma brucei brucei TREU667 infected in mouse assessed as decrease in parasitemia at 50 mg/kg, bid administered via oral gavage on day 21 to 34 post infection measured on day 41 to 42 by microscopic method; type: functional, organism-based
# [23] = system: Trypanosoma brucei brucei; assay: Antiparasitic activity against Trypanosoma brucei brucei BF427 assessed as growth inhibition at 32 times EC50 pretreated for 48 hrs followed by compound washout measured after 10 days by light microscopic method; type: functional
# Cytochrome P450 3A4 = Cytochrome P450 3A4 (Homo sapiens, UniProt P08684); assay: Inhibition of human CYP3A4; type: ADME
# [24] = system: Trypanosoma brucei brucei; assay: Antiparasitic activity against Trypanosoma brucei brucei BF427 assessed as growth inhibition at 16 times EC50 pretreated for 24 hrs followed by compound washout measured after 10 days by light microscopic method; type: functional
# [25] = system: Trypanosoma brucei brucei; assay: Antiparasitic activity against Trypanosoma brucei brucei BF427 assessed as growth inhibition at 32 times EC50 pretreated for 96 hrs followed by compound washout measured after 10 days by light microscopic method; type: functional
# [26] = system: Trypanosoma brucei brucei; assay: Antiparasitic activity against Trypanosoma brucei brucei BF427 assessed as growth inhibition at 16 times EC50 pretreated for 72 hrs followed by compound washout measured after 10 days by light microscopic method; type: functional
# [27] = system: Trypanosoma brucei brucei; assay: Antiparasitic activity against Trypanosoma brucei brucei BF427 assessed as growth inhibition at 4 times EC50 pretreated for 24 hrs followed by compound washout measured after 10 days by light microscopic method; type: functional
# [28] = system: Trypanosoma brucei brucei; assay: Antiparasitic activity against Trypanosoma brucei brucei BF427 assessed as growth inhibition at EC50 pretreated for 96 hrs followed by compound washout measured after 10 days by light microscopic method; type: functional
# [29] = system: Trypanosoma brucei brucei; assay: Antiparasitic activity against Trypanosoma brucei brucei BF427 assessed as growth inhibition at 4 times EC50 pretreated for 48 hrs followed by compound washout measured after 10 days by light microscopic method; type: functional
# [30] = system: Trypanosoma brucei brucei; assay: Antiparasitic activity against Trypanosoma brucei brucei BF427 assessed as growth inhibition at EC50 pretreated for 72 hrs followed by compound washout measured after 10 days by light microscopic method; type: functional
# Chain of Cytochrome P450 3A4 (P08684 whole entry): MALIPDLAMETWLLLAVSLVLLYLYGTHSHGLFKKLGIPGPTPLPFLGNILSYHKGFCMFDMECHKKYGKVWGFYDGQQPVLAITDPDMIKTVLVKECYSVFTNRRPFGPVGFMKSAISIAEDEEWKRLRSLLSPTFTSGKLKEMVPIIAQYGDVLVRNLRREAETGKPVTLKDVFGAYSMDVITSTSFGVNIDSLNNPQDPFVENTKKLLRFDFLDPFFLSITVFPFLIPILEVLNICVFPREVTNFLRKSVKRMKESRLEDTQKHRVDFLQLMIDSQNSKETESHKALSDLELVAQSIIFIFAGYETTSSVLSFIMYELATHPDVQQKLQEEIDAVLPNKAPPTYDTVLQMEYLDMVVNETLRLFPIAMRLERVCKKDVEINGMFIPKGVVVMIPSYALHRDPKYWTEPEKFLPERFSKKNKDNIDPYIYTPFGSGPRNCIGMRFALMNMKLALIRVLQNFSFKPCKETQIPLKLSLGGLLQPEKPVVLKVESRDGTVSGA
smiles,measurement,setting,value
Cl.NCCN(C(=O)c1ccccc1C(F)(F)F)c1ccc(OCc2ccc(Cl)cc2)cc1,BPR,[1],0.88
same,Cmax,[2],1670 nM
same,t1/2,Liver,> 1 h
same,growth inhibition (GI),[3],Active
same,growth inhibition (GI),[4],Active
same,Activity,[5],33%
same,CC50,HepG2,5.72 µM
same,growth inhibition (GI),[6],Active
same,growth inhibition (GI),[7],Active
same,AUC(0-t) at 8 h,[8],10.3 µM·h
same,EC50,[9],0.007 µM
same,CC50,[10],3.08 µM
CC1(C)OB(O)c2cc(NC(=O)c3ccc(F)cc3C(F)(F)F)ccc21,Activity,[11],Active
same,Activity,[12],Active
same,Activity,[13],Active
same,Activity,[14],Active
same,Activity,[15],Active
same,Activity,[16],Active
same,Activity,[17],Active
same,Activity,[18],Active
same,Activity,[19],Active
same,Activity,[20],Active
same,Activity,[21],Active
same,Activity,[22],Active
CC(C)c1ccc(COc2ccc(N(CCN)C(=O)c3ccc(Cl)cc3Cl)cc2)cc1.Cl,growth inhibition (GI),[23],Active
same,BPR,[1],0.32
same,Cmax,[2],1490 nM
same,t1/2,Liver,> 1 h
same,Activity,[5],67 - 80%
same,CC50,HepG2,3.19 µM
same,IC50,Cytochrome P450 3A4,0.015 µM
same,growth inhibition (GI),[24],Active
same,growth inhibition (GI),[25],Active
same,growth inhibition (GI),[26],Active
same,AUC(0-t) at 8 h,[8],21 µM·h
same,CC50,[10],3.1 µM
N=C(N)c1ccc(OCCCCCOc2ccc(C(=N)N)cc2)cc1,growth inhibition (GI),[27],Active
same,growth inhibition (GI),[28],Active
same,growth inhibition (GI),[29],Active
same,growth inhibition (GI),[30],Active
